# Reference: the supplement of paper PMC10307832
# What was measured:
# Assay in all cases: relative viability (nuclei count vs DMSO), 5 days (fraction); higher = more cells survive
# [1] = compound: Cc1cc([C@@H](C)Nc2ccccc2C(=O)O)c2nc(N3CCOCC3)cc(=O)n2c1 [AZD6482] + CC1(C)CCC(c2ccc(Cl)cc2)=C(CN2CCN(c3ccc(C(=O)NS(=O)(=O)c4ccc(N[C@H](CCN5CCOCC5)CSc5ccccc5)c(S(=O)(=O)C(F)(F)F)c4)cc3)CC2)C1 [Navitoclax] (partner 0.5 µM)
# In short: (§1)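 One day after seeding in 1536-well plates, lung cancer cell lines were dosed by pin tool. Dosing was either single-drug or a fixed anchor-drug dose plus five library-drug doses (not always all listed) in √10 steps. After 5 days, nuclei were stained in one fix-and-stain step and counted on 4× images, and relative viability is the nuclei count of treated wells over that of vehicle wells, given as the median of duplicate plates.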
# [2] = compound: COc1cc2nc(N3CCCN(C)CC3)nc(NC3CCN(Cc4ccccc4)CC3)c2cc1OC + CC(=O)Nc1cccc(-n2c(=O)n(C3CC3)c(=O)c3c(Nc4ccc(I)cc4F)n(C)c(=O)c(C)c32)c1 [Trametinib] (partner 0.02 µM)
# In short: as §1
# [3] = compound: COc1cc2nc(N3CCCN(C)CC3)nc(NC3CCN(Cc4ccccc4)CC3)c2cc1OC + N=C(N)NC(=N)NCCc1ccccc1 [Phenformin] (partner 250 µM)
# In short: as §1
# [4] = compound: COc1cc2nc(N3CCCN(C)CC3)nc(NC3CCN(Cc4ccccc4)CC3)c2cc1OC + Nc1ncn([C@H]2C[C@H](O)[C@@H](CO)O2)c(=O)n1 [Decitabine] (partner 2 µM)
# In short: as §1
Cell Line,relative viability ([1]; first compound 0.08 µM),relative viability ([1]; first compound 0.253 µM),relative viability ([1]; first compound 0.8 µM),relative viability ([1]; first compound 8 µM),relative viability ([2]; first compound 0.2 µM),relative viability ([2]; first compound 0.6325 µM),relative viability ([2]; first compound 2 µM),relative viability ([2]; first compound 6.325 µM),relative viability ([3]; first compound 0.2 µM),relative viability ([3]; first compound 0.6325 µM),relative viability ([3]; first compound 2 µM),relative viability ([3]; first compound 6.325 µM),relative viability ([4]; first compound 0.2 µM),relative viability ([4]; first compound 0.6325 µM),relative viability ([4]; first compound 2 µM),relative viability ([4]; first compound 6.325 µM),relative viability ([1]; first compound 2.53 µM)
HARA,1.11,1.16,1.13,1.16,0.686,0.916,0.522,0.746,0.474,0.425,0.494,0.462,0.548,0.556,0.697,0.442,–
NCI-H2087,0.847,0.909,0.966,0.895,0.244,0.215,0.144,0.206,0.413,0.439,0.48,0.393,0.318,0.261,0.219,0.212,0.818
NCI-H1437,1.06,1.13,1.12,0.692,0.492,0.515,0.527,0.325,0.261,0.329,0.326,0.297,0.61,0.522,0.584,0.577,0.816
NCI-H1792,0.508,0.511,0.566,0.463,0.435,0.47,0.466,0.399,–,0.257,0.467,0.268,0.625,0.553,0.481,0.496,0.341
ChaGo-K-1,1.09,–,1.18,1.1,0.919,0.882,0.932,0.887,0.51,0.494,0.492,0.498,0.553,0.506,0.49,0.504,0.986
COR-L23,0.711,1.02,1.23,0.857,0.635,0.466,0.748,0.638,0.456,0.446,0.494,0.398,0.466,0.477,0.527,0.471,0.756
COR-L 105,0.78,0.648,0.747,0.633,0.429,0.515,0.403,0.439,0.461,0.514,0.472,0.343,0.687,0.685,0.648,0.492,0.521
LK-2,0.779,0.716,0.932,0.782,0.813,0.928,0.633,0.881,0.504,0.569,0.576,0.311,0.276,0.244,0.359,0.326,0.681
